Tests used:
[1] = test system: lung cancer cell lines PC9, PC9GR and H1975; experiment: CCK-8 proliferation / cell death experiment; assay type: cell-based
Description: (§1) The present invention further provides an application of a gold (I) Gefitinib derivative, mainly providing the study of the effect of Embodiment 8 (L1Au2 for short). […] L1Au2 is mainly used to treat lung cancer resistant to first- and second-generation EGFR-TKI. In vitro experiments on L1Au2 were conducted against Gefitinib-sensitive and Gefitinib-resistant lung cancer. […] The cell lines used in the experiment are internationally universal lung cancer tumor cell lines: Gefitinib-sensitive lung cancer cell line PC9, and Gefitinib-resistant cell lines PC9GR and H1975. […] See FIG. 3 for the effect diagram of a specific product.

[2] = test system: lung cancer cell lines PC9, PC9GR and H1975; experiment: plate cloning (colony formation) experiment; assay type: cell-based
Description: as §1

thioredoxin reductase = thioredoxin reductase activity; assay type: biochemical
Description: as §1

lung cancer cells [3] = experiment: Transwell migration experiment; assay type: cell-based
Description: as §1

[4] = test system: drug-resistant subcutaneous tumors; experiment: subcutaneous drug-resistant tumor model in nude mice; details: in vivo and in vitro
Description: as §1

GPX4 protein = target: T1, GPX4 protein (Homo sapiens, UniProt P36969); experiment: GPX4 protein degradation; assay type: cell-based; details: by promoting autophagy and inducing GPX4 ubiquitination
T1 construct: endogenous in cells; host or cells: Gefitinib-resistant lung cancer cells (PC9GR / H1975; not specified which)
T1 sequence (P36969 1-197): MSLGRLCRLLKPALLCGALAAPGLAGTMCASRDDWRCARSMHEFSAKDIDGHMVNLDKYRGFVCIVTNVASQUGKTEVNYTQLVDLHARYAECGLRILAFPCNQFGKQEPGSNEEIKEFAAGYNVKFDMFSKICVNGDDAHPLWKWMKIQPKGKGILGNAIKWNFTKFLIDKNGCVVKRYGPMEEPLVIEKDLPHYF
Description: as §1

lung cancer cells [5] = experiment: Annexin V-FITC/PI double staining apoptosis assay; assay type: cell-based
Description: as §1

[6] = test system: Gefitinib-resistant lung cancer cells; experiment: mitochondrial damage, oxidative stress and ferroptosis in resistant cells; assay type: cell-based
Description: as §1

EGFR-related pathway = EGFR-related pathway activation; assay type: cell-based
Description: as §1

## COc1cc2ncnc(Nc3ccc(F)c(Cl)c3)c2cc1OCCCC#[C][Au][PH]12CN3CN(CN(C3)C1)C2 [Embodiment 8]
[1]; CCK8
  lung cancer cell death over time (FIG. 2A): induces lung cancer cell death in a time-dependent manner
[1]; CCK-8 and plate cloning, PC9, PC9GR, H1975
  inhibition of proliferation: obvious effect on inhibiting proliferation
[2]
  colony formation ability of lung cancer cells (FIG. 2B): significantly inhibits the colony formation ability
Thioredoxin reductase
  thioredoxin reductase activity: inhibits thioredoxin reductase activity
Lung cancer cells [3]
  migration ability of lung cancer cells (FIG. 2C): significantly inhibited the migration ability
[4]
  performance compared with Gefitinib against drug-resistant tumors: performs better than Gefitinib
GPX4 protein
  GPX4 protein level: degrades GPX4 protein
Lung cancer cells [5]
  apoptosis of lung cancer cells (FIG. 2D): significantly promoted the apoptosis
[6]
  intracellular mitochondrial damage: induces intracellular mitochondrial damage
  intracellular oxidative stress level: severely induces elevation of the intracellular oxidative stress level
[6]; Gefitinib-resistant lung cancer cells
  ferroptosis: resulting in ferroptosis
EGFR-related pathway
  EGFR-related pathway activation: inhibits EGFR-related pathway activation
